Reference: patent publication US8026231B2, “Aminothiolester compounds, pharmaceutical and cosmetic compositions containing same and uses thereof” (CNRS, priority 2000, dated 2011)

Experiments:
L1210T cells = experiment: Growth of L1210T cells (L1210 bearing human ALDH1 cDNA); type: cell-based, mouse; details: 50% inhibition of growth
Method: (§1) The cells used correspond to various cell lines: human lung normal embryonic fibroblasts (MRC5), mouse melanoma cells (B16), mouse lymphocytic leukaemia cells (L1210) and L1210T cells obtained by infecting L1210 cells with a retroviral vector bearing human ALDH1 cDNA.
The procedure used for the tests on the L1210 cells is as follows: • 10^5 cells are incubated in the various wells of a microplate in 1 ml of culture medium. After incubating for 4 hours, the test compounds are added to the wells containing the L1210 cells.
For the L1210 cells, the growth is measured by counting the viable cells in the presence of 0.1% Trypan blue.
(§2) The IC50 concentration is the concentration corresponding to a 50% inhibition of growth of the cells.

B16 cells = experiment: Growth of B16 cells (protein and DNA assay); type: cell-based, mouse; details: 50% inhibition of growth
Method: as §1
(§3) The procedure used for the tests on the B16 and MRC5 cells is as follows: • The test compounds are added 4 hours after placing the cells in the wells. After 72 hours, the cells are removed at different times. The B16 and MRC5 cells are washed twice with PBS and recovered directly with 0.1M sodium chloride.
(§4) The effect on the growth of the B16 and MRC5 cells is measured by protein assay according to the Lowry method (Lowry, O. H., Rosenbrough, N. J., Farr, A. L. and Randall, J. Biol. Chem. 193, 265-275, (1951)) and DNA assay by the Hoechst method (West, D. C., Sattar, A. and Kumar, S., Anal. Biochem. 147, 289-295, (1985)).
as §2

MRC5 cells = experiment: Growth of MRC5 cells (protein and DNA assay); type: cell-based, human; details: 50% inhibition of growth
Method: as §1, §3, §4, §2

BAF3-bcl2 G21 cells = experiment: Apoptosis induction (DNA fragmentation) in BAF3-bcl2 clone G21, 24 h; type: cell-based, mouse
Method: (§5) The BAF3-bcl2 cells correspond to BAF3 cells (mouse lymphocyte cells) tranfected with the bcl2 gene. Among these cells, four lines known as H16, G18, B14 and G21 overexpress the bcl2 gene.
(§6) Whereas the BAF3-b0 cells undergo apoptosis (more than 80% of the cells) in the absence of interleukin 3 (IL3) in 16 hours [according to Collins, M. K. L., Marvel, J., Malde, P. & Lopez-Rivas, A., J. Exp. Med. 176, 1043-1051, (1992)], the BAF3-bcl2 cells show no sign of apoptosis in the absence of IL3. They are thus apoptosis-resistant.
(§7) The procedure which was used is as follows: • The BAF3-b0 or BAF3-bcl2 cells, cultured in the presence of IL3, were labelled by a method adapted from that disclosed in Wright, S. et al., J. of Cell. Biochem. 48, 344-355, (1992).
(§8) 10^5 cells/ml were incubated with 4.62 KBq.ml^−1 [^3H]-thymidine for 40 hours at 37° C. After two washes with culture medium, 2.5×10^6 cells were cultured in the presence of the test compound.
(§9) After incubating for 24 hours, these cells were recovered by centrifugation at 400×g for 5 minutes and washed 3 times with PBS buffer. The cells recovered in the pellet were lysed in 2 ml of 0.1% Triton X-100, 20 mM EDTA, 5 mM Tris pH 8 and centrifuged at 30 000×g at 4° C. for 30 minutes.
(§10) The supernatants were recovered and the pellets dissolved in 0.3 ml of 0.5N NaOH.
(§11) Aliquots of the culture medium (1 ml), of the supernatant (0.3 ml) and of the dissolved pellet (0.1 ml) were assayed in a scintillation counter.
(§12) The percentage of DNA fragments is calculated in the following way:
(§13) The percentage of fragmentation of the DNA is a direct measure of the apoptosis which the cells have undergone.

BAF3-bcl2 H16 cells = experiment: Apoptosis induction (DNA fragmentation) in BAF3-bcl2 clone H16, 24 h; type: cell-based, mouse
Method: as §5, §6, §7, §8, §9, §10, §11, §12, §13

K562 cells = experiment: Growth of K562 cells (control, no MDR overexpression); type: cell-based, human; details: increasing concentrations, 72 h, FIGS. 7 and 8
Method: 10^5 cells were incubated in the various wells of a microplate in 1 ml of culture medium. These are R7 cells, on the one hand, and K562 cells, on the other hand.
After incubating for 4 hours, the test compound (compound of Example 1 according to the invention, on the one hand, and daunorubicin, on the other hand) was added to the wells containing the cells.
After 72 hours, the cells were collected at different times.
The growth of the cells was measured by counting the viable cells in the presence of 0.1% Trypan blue.
FIGS. 7 and 8 respectively represent the percentage inhibition (I %) by daunorubicin and the compound of Example 1 on the growth of the R7 and K562 cells, obtained at increasing concentrations C. The results obtained with the K562 cells are symbolized by ♦ and those obtained with the R7 cells are symbolized by ▴.

DU145 cells [1] = experiment: Combination of Example 1 and Metmetlico on the growth of DU145 cells; type: cell-based, human
Method: The cells used correspond to metastatic cells of human prostate cancer DU145. 10^5 DU145 cells are incubated in the various wells of a microplate in 1 ml of culture medium. The test compounds are added 4 hours after placing the cells in the wells. After 72 hours, the cells are removed at different times. The cells are washed twice with PBS and recovered directly with 0.1M sodium chloride. The effect on the growth of DU145 cells is measured by protein assay according to the Lowry method (Lowry, O. H., Rosenbrough, […]. and Randall, J. Biol. Chem. 193, 265-275, (1951)) and DNA assay by the Hoechst method (West, […]. and Kumar, S., Anal. Biochem. 147, 289-295, (1985)). The test compounds are the compound of Example 1, metmetlico and a mixture thereof.

DU145 cells [2] = experiment: Combination of two compounds of the invention on the growth of DU145 cells; type: cell-based, human; details: 2 μM
Method: 10^5 normal human prostate cells or 10^5 cancerous human prostate cells (DU145) are incubated in various wells of a microplate in 1 ml of culture medium.
The compounds are added 4 hours after placing the cells in the wells.
After 72 hours, the cells are removed at different times. The DU145 cells or the normal cells are washed twice with PBS and recovered directly with 0.1M sodium chloride.
as §4, with “DU145 cells or the normal” for “B16 and MRC5”

CSC(=O)C#CC(C)(C)N(C)C [Example 1, S-methyl 4-dimethyl-amino-4-methyl-2-pentynethioate]
IC50 (L1210T cells): 1.6 µM
IC50 (B16 cells): 0.8 µM
IC50 (MRC5 cells): 8.4 µM
DNA fragmentation (%) (BAF3-bcl2 G21 cells; G21, 1 μM): 0%
DNA fragmentation (%) (BAF3-bcl2 G21 cells; G21, 2 μM): 5.8%
DNA fragmentation (%) (BAF3-bcl2 G21 cells; G21, 4 μM): 29.3%
DNA fragmentation (%) (BAF3-bcl2 G21 cells; G21, 8 μM): 71.8%
DNA fragmentation (%) (BAF3-bcl2 H16 cells; H16, 1 μM): 2.9%
DNA fragmentation (%) (BAF3-bcl2 H16 cells; H16, 2 μM): 6.3%
DNA fragmentation (%) (BAF3-bcl2 H16 cells; H16, 4 μM): 65.3%
DNA fragmentation (%) (BAF3-bcl2 H16 cells; H16, 8 μM): 94.2%
Inhibition of the growth of the K562 cells (K562 cells): inhibitory effect obtained at the same concentrations on the growth of the K562 cells
% Inhibition of growth of the DU145 cells (DU145 cells [1]; 2 μM): 5.8%
% Inhibition of growth of the DU145 cells (DU145 cells [1]; 3 μM): 16.1%
% Inhibition of growth of the DU145 cells (DU145 cells [1]; 4 μM): 22.4%
% Inhibition of DU145 cells (DU145 cells [2]): 21.3%
